The numbers were not newly measured in US8283154B2, “Method of decontaminating polluted environments with bacteria on a porous support” (National Institute for Agro-Environmental Sciences …, priority 2005, dated 2012), which cites them from elsewhere.

In the case of `Clc1c(Cl)c(Cl)c(Cl)c(Cl)c1Cl` [HCB, hexachlorobenzene], the aqueous solubility is recorded as 0.005 ppm.
